What was measured:
NLRP3 inflammasome = target: T1, NLRP3 inflammasome (Mus musculus, UniProt Q8R4B8); assay: Inhibition of LPS and ATP induced NLRP3 inflammasome activation in BMDMs (IL-1β level); format: cell-based, C57BL/6 mice; details: read-out: IC50, inhibitory effect on activation of NLRP3 inflammasome
T1 construct: endogenous in cells; host or cells: primary bone marrow-derived macrophages (BMDMs) from female C57BL/6 mice, differentiated with rmM-CSF
Text: NLRP3 is an important pattern recognition receptor, that can form the NLRP3 inflammasome through the adaptor ASC and pro-caspase-1. After activation, the NLRP3 inflammasome can mediate the activation of caspase-1, thus promoting the maturation and secretion of IL-1β. In order to determine whether the prepared guaianolide sesquiterpene lactone Compounds 1-8 can inhibit the activation of the NLRP3 inflammasome, we used LPS and ATP to induce the activation of the NLRP3 inflammasome, and observed the effects of Compounds 1-8 on the IL-1β level caused by NLRP3 inflammasome activation.
C57BL/6 mice were sacrificed by cervical dislocation, and then soaked in 75% alcohol for 5-10 min. Subsequently, two hind legs of the mice were cut off with scissors. Next, the meat was removed, and the leg bones were left, which were then washed with PBS for three times. After severing the bone at both ends, a sterile syringe filled with cold serum-free RPMI 1640 medium was used to flush the bone marrow into a 15 mL centrifuge tube. Subsequently, the bone marrow was centrifuged at 1500 rpm for 5 min, and the supernatant was discarded. The residue was resuspended with 1 mL of erythrocyte lysate, blown repeatedly, and then stood for 7 min to lyse erythrocytes. After centrifugation at 1500 rpm for 5 min, the supernatant was discarded. The residue was resuspended with the RPMI 1640 medium containing 100 ng/ml of rmM-CSF, and then transferred to a 6-well culture plate for culture.
The BMDMs were seeded on 6-well cell culture plates and then treated with 100 ng/ml ultrapure LPS for 3 h. […] Subsequently, the cells were stimulated with 5 mM ATP for 45 min. The supernatants were collected into 1.5 mL EP tubes for subsequent detection of IL-1β level.

mouse sepsis model = assay: Mouse sepsis model (LPS), Q-PCR of inflammatory factors; format: in vivo, C57BL/6 mice; set-up: key: relative mRNA by 2^−ΔΔCt, normalized to Gapdh
Text: The mice were randomly divided into 8 groups, one of which was randomly selected as the normal group, and the other 7 groups were the model group, the parent drug 1 (0.4 and 4 μmol/kg), the hydrochloride 22 (4 μmol/kg), the fumarate 23 (0.4 and 4 μmol/kg) and dexamethasone (Dex, 12 μmol/kg) groups, respectively, with 6 mice in each group. 5 days before model establishment, the parent drug 1 (0.4 and 4 μmol/kg), the hydrochloride 22 (4 μmol/kg), the fumarate 23 (0.4 and 4 μmol/kg) and Dex (12 μmol/kg) were administered intragastrically. The mice in the normal group and model group were administered intragastrically the same volume of the solvent 0.5% CMC-Na. LPS (10 mg/kg) was injected intraperitoneally 1 hour after administration on the last day to establish a mouse sepsis model.
At 6 h after intraperitoneal injection of LPS, the mice were sacrificed by cervical dislocation, and the abdominal cavity was opened. The lungs, livers and kidneys were taken out, and rinsed twice with pre-cooled PBS. The lung tissues, liver left lobe tissues and kidney tissues of the mice were cut, and fixed with 4% paraformaldehyde for 24-48 h. The remaining tissues were frozen at −70° Cfor subsequent use.
20 mg of kidney, lung and liver tissues were accurately weighed, rinsed with pre-cooled PBS solution, cut into small pieces by ophthalmic surgical scissors, and put into a glass homogenizer, into which was added 1 mL Trizol reagent for grinding to prepare tissue homogenate. Subsequently, the homogenate was transferred into a 1.5 mL EP tube without RNase and lysed on ice for 10 min. 200 μL chloroform was added, and the mixture was shaken violently, stood on ice for 3-5 min, and centrifuged at 12000 rpm and 4° C. for 15 min. The supernatant was aspirated carefully into a new 1.5 mL EP tube without RNase, into which was added the same volume of pre-cooled isopropanol, stood on an ice bath for 30 min, centrifuged at 12000 rpm and 4° C. for 10 min, and the supernatant was discarded. 75% ethanol-DEPC solution was added to wash the precipitate, and the total RNA was obtained by inversion and air drying on flat paper. Subsequently, 10 μL of DEPC treated water was added for dissolution. 1 μL of the total RNA solution was taken, and diluted to 100 times, the OD values of which at 260 nm and 280 nm were measured with a full wavelength microplate reader. If the ratio of OD260/OD280 is between 1.8 and 2.0, it is said that the extracted RNA has a high purity, i.e., it can be used in subsequent experiments.
Subsequent experiments were carried out with 20 μL of a reverse transcription reaction system according to the method described in the kit instructions:
Subsequent experiments were carried out with 20 μL of a reaction system according to the method described in the kit instructions:
The above reagents were added into a micro-reaction tube, sealed with a sealing membrane, and placed in a Q-PCR instrument. The parameters were set according to the following reaction conditions to carry out the amplification experiment. The reaction conditions were as follows:
The threshold cycle (Ct) value of each group was recorded. Calculating and analyzing were carried out by the 2^−ΔΔCt method (the expression level of the control gene Gapdh was set to 1 to correct the expression level of the target gene).

[1] = Table 12, title 'in lung' (text b281: liver), 0.4 μmol/kg i.g.
[2] = Table 12, title 'in lung' (text b281: liver), 4 μmol/kg i.g.

T1 sequence (Q8R4B8 whole entry): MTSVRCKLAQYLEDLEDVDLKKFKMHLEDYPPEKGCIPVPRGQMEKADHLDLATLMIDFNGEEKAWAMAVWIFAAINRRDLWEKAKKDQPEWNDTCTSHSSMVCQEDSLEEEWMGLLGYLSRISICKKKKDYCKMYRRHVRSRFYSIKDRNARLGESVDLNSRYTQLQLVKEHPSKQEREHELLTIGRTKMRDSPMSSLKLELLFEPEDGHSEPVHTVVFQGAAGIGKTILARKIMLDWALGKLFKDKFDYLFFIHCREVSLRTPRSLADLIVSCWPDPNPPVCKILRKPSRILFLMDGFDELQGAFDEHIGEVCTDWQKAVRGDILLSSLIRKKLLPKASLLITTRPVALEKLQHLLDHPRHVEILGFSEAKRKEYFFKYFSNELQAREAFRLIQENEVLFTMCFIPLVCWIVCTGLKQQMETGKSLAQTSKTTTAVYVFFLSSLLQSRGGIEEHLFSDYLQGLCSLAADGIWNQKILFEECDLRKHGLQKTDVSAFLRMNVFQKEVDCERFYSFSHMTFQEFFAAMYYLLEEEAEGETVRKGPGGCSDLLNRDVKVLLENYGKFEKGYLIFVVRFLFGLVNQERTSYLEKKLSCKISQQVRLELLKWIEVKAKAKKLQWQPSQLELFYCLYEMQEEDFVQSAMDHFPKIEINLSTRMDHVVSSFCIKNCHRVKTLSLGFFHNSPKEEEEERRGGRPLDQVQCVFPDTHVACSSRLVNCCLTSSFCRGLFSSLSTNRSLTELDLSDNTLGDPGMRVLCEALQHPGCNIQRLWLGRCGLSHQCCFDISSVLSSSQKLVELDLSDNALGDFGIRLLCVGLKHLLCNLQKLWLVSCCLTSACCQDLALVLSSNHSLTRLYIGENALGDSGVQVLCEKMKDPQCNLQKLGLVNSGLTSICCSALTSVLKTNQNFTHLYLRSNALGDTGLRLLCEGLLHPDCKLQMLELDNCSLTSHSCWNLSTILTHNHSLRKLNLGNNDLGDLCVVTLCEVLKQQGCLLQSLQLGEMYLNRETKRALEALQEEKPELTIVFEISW

SMILES	IC50 (NLRP3 inflammasome)	Il1 mRNA expression (mouse sepsis model; [1])	Il6 mRNA expression (mouse sepsis model; [1])	Tnf mRNA expression (mouse sepsis model; [1])	Il1 mRNA expression (mouse sepsis model; [2])	Il6 mRNA expression (mouse sepsis model; [2])	Tnf mRNA expression (mouse sepsis model; [2])	Il1 mRNA expression (mouse sepsis model; kidney, 0.4 μmol/kg i.g.)	Il6 mRNA expression (mouse sepsis model; kidney, 0.4 μmol/kg i.g.)	Tnf mRNA expression (mouse sepsis model; kidney, 0.4 μmol/kg i.g.)	Il1 mRNA expression (mouse sepsis model; kidney, 4 μmol/kg i.g.)	Il6 mRNA expression (mouse sepsis model; kidney, 4 μmol/kg i.g.)	Tnf mRNA expression (mouse sepsis model; kidney, 4 μmol/kg i.g.)	Il1 mRNA expression (mouse sepsis model; lung, 0.4 μmol/kg i.g.)	Il6 mRNA expression (mouse sepsis model; lung, 0.4 μmol/kg i.g.)	Tnf mRNA expression (mouse sepsis model; lung, 0.4 μmol/kg i.g.)	Il1 mRNA expression (mouse sepsis model; lung, 4 μmol/kg i.g.)	Il6 mRNA expression (mouse sepsis model; lung, 4 μmol/kg i.g.)	Tnf mRNA expression (mouse sepsis model; lung, 4 μmol/kg i.g.)
C=C1C(=O)O[C@@H]2[C@@H]3[C@]4(CC[C@@]3(C)O)C[C@]4(C)CC[C@@H]12 [Compound 1]	< 0.04 µM	11.24 ± 2.98	8.86 ± 3.11	8.75 ± 2.25	4.82 ± 0.58	5.20 ± 0.87	7.09 ± 0.99	7.01 ± 0.33	7.55 ± 2.08	7.17 ± 1.22	3.05 ± 0.58	3.11 ± 0.29	6.59 ± 0.18	15.29 ± 0.88	19.17 ± 0.51	8.58 ± 0.85	7.89 ± 1.44	11.67 ± 1.84	7.99 ± 1.36
CN(C)C[C@@H]1C(=O)O[C@H]2[C@H]1CC[C@@]1(C)C[C@]13CC[C@@](C)(O)[C@H]23 [Compound 22]	0.04 to 0.08 µM				3.07 ± 0.29	3.93 ± 0.90	5.71 ± 0.61				2.76 ± 0.59	2.43 ± 0.64	6.20 ± 0.60				5.22 ± 0.90	7.16 ± 0.71	6.52 ± 0.29
C=C1C(=O)O[C@@H]2[C@H]3C(C)=CC[C@@]34O[C@@]4(C)CC[C@@H]12 [arglabin, reference compound]	< 0.04 µM																		
CN(C)C[C@@H]1C(=O)O[C@H]2[C@H]1CC[C@@]1(C)C[C@]13CC[C@@](C)(O)[C@H]23 [Compound 23]	0.04 to 0.08 µM	10.46 ± 1.55	9.13 ± 0.80	7.63 ± 1.97	4.36 ± 0.94	4.97 ± 0.77	7.10 ± 1.09	6.56 ± 0.88	6.05 ± 0.19	6.70 ± 0.80	2.82 ± 0.33	2.70 ± 0.52	6.04 ± 1.62	13.30 ± 0.88	18.40 ± 3.16	8.79 ± 1.18	6.79 ± 0.72	9.10 ± 1.20	8.67 ± 1.51
